Molecular target: MNK2a (Homo sapiens (Human), UniProt Q9HBH9)
Assay: MNK2a in vitro kinase assay (Assay 2), ADP-Glo
Assay type: biochemical
Conditions: read-out: MNK2 IC50

Chain of MNK2a (Q9HBH9 whole entry): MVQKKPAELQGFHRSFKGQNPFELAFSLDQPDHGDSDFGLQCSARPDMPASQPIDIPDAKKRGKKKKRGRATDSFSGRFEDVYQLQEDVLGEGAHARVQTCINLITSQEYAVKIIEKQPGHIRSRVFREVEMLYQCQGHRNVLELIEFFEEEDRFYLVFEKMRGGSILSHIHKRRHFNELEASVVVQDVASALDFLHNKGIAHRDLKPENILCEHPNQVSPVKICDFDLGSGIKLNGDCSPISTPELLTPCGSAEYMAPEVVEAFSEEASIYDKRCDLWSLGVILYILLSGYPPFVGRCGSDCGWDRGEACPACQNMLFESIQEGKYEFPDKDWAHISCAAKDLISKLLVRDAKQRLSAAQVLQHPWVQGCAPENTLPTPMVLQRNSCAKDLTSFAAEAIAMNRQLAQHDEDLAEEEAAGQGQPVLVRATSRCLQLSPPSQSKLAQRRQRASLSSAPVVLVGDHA

| Compound | IC50 |
| --- | --- |
| COCCN(C)C(=O)[C@@H](C)Oc1cc(F)ccc1Nc1ncnc2cc(N=S(C)(C)=O)cc(C)c12 [Example 4.055] | 14 nM |
| Cc1cc(N=S2(=O)CCCC2)cc2ncnc(Nc3ccc(F)cc3OCc3ccccc3)c12 [Example 2.004] | 6 nM |
| C#CCNC(=O)[C@@H](C)Oc1cc(F)ccc1Nc1ncnc2cc(N=S3(=O)CCCC3)cc(C)c12 [Example 4.027] | 1 nM |
| Cc1cc(N=S2(=O)CCCC2)cc2ncnc(Nc3ccc(F)cc3O[C@H](C)C(=O)N(C)CCc3ccccc3)c12 [Example 4.063] | 10 nM |
| Cc1cc(N=S(C)(C)=O)cc2ncnc(Nc3ccc(F)cc3O[C@H](C)C(=O)N[C@@H]3CCC[C@@H]3O)c12 [Example 4.038] | 27 nM |
| Cc1cc(N=S2(=O)CCCC2)cc2ncnc(Nc3ccc(F)cc3O[C@H](C)C(F)(F)F)c12 [Example 2.048] | 2 nM |
| Cc1cc(N=S(C)(C)=O)cc2ncnc(Nc3ccc(F)cc3OC(C)c3nccs3)c12 (centres unmarked) [Example 3.035] | 37 nM |
| Cc1cc(N=S(C)(C)=O)cc2ncnc(Nc3ccc(F)cc3OC(C)c3cccnc3)c12 (centres unmarked) [Example 3.007] | 9 nM |
| Cc1cc([C@@H](C)Oc2ncccc2Nc2ncnc3cc(N=S(C)(C)=O)cc(Cl)c23)on1 [Example 1.016] | 1 nM |
| O=S1(=Nc2cc(C(F)(F)F)c3c(Nc4ccc(F)cc4OC(CF)CF)ncnc3c2)CCOCC1 [Example 1.021] | 1 nM |
| Cc1cc(N=S2(=O)CCCC2)cc2ncnc(Nc3ccc(F)cc3O[C@H](C)C(=O)N3CCC(=O)CC3)c12 [Example 4.054] | 9 nM |
| CCOC(=O)[C@@H](C)Oc1cc(F)ccc1Nc1ncnc2cc(N=S(C)(C)=O)cc(C)c12 [Example 3.022] | 2 nM |
| CCNC(=O)[C@@H](C)Oc1cc(F)ccc1Nc1ncnc2cc(N=S(C)(C)=O)cc(C)c12 [Example 4.034] | 3 nM |
| Cc1cc(N=S(C)(C)=O)cc2ncnc(Nc3cccnc3OC(C)C)c12 [Example 2.017] | 2 nM |
| Cc1cc(N=S(C)(C)=O)cc2ncnc(Nc3ccc(F)cc3OC(C)CC3CCOCC3)c12 (centres unmarked) [Example 3.019] | 24 nM |
| Cc1cc(N=S(C)(C)=O)cc2ncnc(Nc3ccc(F)cc3OC(C)c3ccncc3)c12 (centres unmarked) [Example 3.046] | 2 nM |
| Cc1cc(N=S(C)(C)=O)cc2ncnc(Nc3ccc(F)cc3OC(C)C(C)(C)C#N)c12 (centres unmarked) [Example 2.010] | 11 nM |
| Cc1cc(N=S(C)(C)=O)cc2ncnc(Nc3ccc(F)cc3O[C@H](C)CNC(=O)C(F)(F)F)c12 [Example 5.010] | 28 nM |
| Cc1cc(N=S2(=O)CCCC2)cc2ncnc(Nc3ccc(F)cc3O[C@H](C)C(=O)N[C@@H]3CCC[C@@H]3O)c12 [Example 4.075] | 9 nM |
| Cc1cc(N=S(C)(C)=O)cc2ncnc(Nc3ccc(F)cc3OCC3COCCO3)c12 (centres unmarked) [Example 3.044] | 63 nM |
| Cc1cc(N=S(C)(C)=O)cc2ncnc(Nc3ccc(F)cc3O[C@H](C)C(=O)N(C)C)c12 [Example 4.002] | 5 nM |

| Compound | IC50 |
| --- | --- |
| CS(C)(=O)=Nc1cc(C(F)(F)F)c2c(Nc3ccc(F)cc3OC(CF)CF)ncnc2c1 [Example 1.002] | 6 nM |
| COC1CCN(C(=O)[C@@H](C)Oc2cc(F)ccc2Nc2ncnc3cc(N=S4(=O)CCCC4)cc(C)c23)CC1 [Example 4.059] | 4 nM |
| Cc1cc(N=S(C)(C)=O)cc2ncnc(Nc3ccc(F)cc3O[C@H](C)C(=O)N(C)C3CCCC3)c12 [Example 4.053] | 16 nM |
| Cc1cc(N=S(C)(C)=O)cc2ncnc(Nc3ccc(F)cc3O[C@H](C)C(=O)NCC(C)O)c12 (some centres unmarked) [Example 4.020] | 4 nM |
| CCS(C)(=O)=Nc1cc(Cl)c2c(Nc3cccnc3O[C@H](C)c3cc(C)no3)ncnc2c1 (some centres unmarked) [Example 1.005] | 2 nM |
| Cc1cc(N=S(C)(C)=O)cc2ncnc(Nc3ccc(F)cc3O[C@H](C)C(=O)N(C)CC(C)C)c12 [Example 4.013] | 5 nM |
| COCCN(C)C(=O)[C@@H](C)Oc1cc(F)ccc1Nc1ncnc2cc(N=S3(=O)CCCC3)cc(C)c12 [Example 4.041] | 7 nM |
| Cc1cc(N=S(C)(C)=O)cc2ncnc(Nc3ccc(F)cc3O[C@H](C)CNS(=O)(=O)C(F)(F)F)c12 [Example 5.011] | 99 nM |
| Cc1cc(N=S2(=O)CCCC2)cc2ncnc(Nc3cccnc3OCC3CCOC3)c12 (centres unmarked) [Example 2.005] | 1 nM |
| Cc1cc(N=S(C)(C)=O)cc2ncnc(Nc3ccc(F)cc3OCC3(C)COC3)c12 [Example 3.029] | 17 nM |
| Cc1cc(N=S(C)(C)=O)cc2ncnc(Nc3ccc(F)cc3O[C@H](C)C(=O)NC3CCC3)c12 [Example 4.023] | 5 nM |
| CC(=O)NC[C@H](C)Oc1cc(F)ccc1Nc1ncnc2cc(N=S(C)(C)=O)cc(C)c12 [Example 5.002] | 7 nM |
| CC(CF)Oc1cc(F)ccc1Nc1ncnc2cc(N=S(C)(C)=O)cc(F)c12 (centres unmarked) [Example 1.006] | 5 nM |
| C[C@@H](Oc1cc(F)ccc1Nc1ncnc2cc(N=S3(=O)CCC3)cc(F)c12)C(=O)NCC(F)(F)F [Example 4.100] | 2 nM |
| Cc1cc(N=S(C)(C)=O)cc2ncnc(Nc3ccc(F)cc3O[C@H](C)C(=O)NC3COC3)c12 [Example 4.009] | 2 nM |
| Cc1cc(N=S(C)(C)=O)cc2ncnc(Nc3ccc(F)cc3OC(C)c3ncco3)c12 (centres unmarked) [Example 3.002] | 8 nM |
| Cc1cc(N=S(C)(C)=O)cc2ncnc(Nc3ccc(F)cc3O[C@H](C)C(=O)NCC(F)(F)F)c12 [Example 4.071] | 1 nM |
| Cc1cc(N=S2(=O)CCCC2)cc2ncnc(Nc3ccc(F)cc3O[C@H](C)C(=O)NC3CCOCC3)c12 [Example 4.014] | 3 nM |
| Cc1cc(N=S(C)(C)=O)cc2ncnc(Nc3ccc(F)cc3OC(C)COC3CCOC3)c12 (centres unmarked) [Example 3.028] | 6 nM |
| Cc1cc([C@@H](C)Oc2cc(F)ccc2Nc2ncnc3cc(N=S4(=O)CCN(C)CC4)cc(C)c23)on1 [Example 7.001] | 1 nM |
| CCN(C)C(=O)[C@@H](C)Oc1cc(F)ccc1Nc1ncnc2cc(N=S(C)(C)=O)cc(C)c12 [Example 4.068] | 4 nM |

System: MNK2 (MNK2a or MNK2b) or MNK1
Assay: not given
Conditions: cell culture cells transfected with MNK2 (MNK2a or MNK2b) or MNK1; cited from earlier work

| Compound | reduction of phosphorylated eIF4E |
| --- | --- |
| Nc1ncnc2n[nH]c(Nc3ccc(F)cc3)c12 [CGP57380] | strong reduction of phosphorylated eIF4E |

Molecular target: MNK1 (Homo sapiens (Human), UniProt Q9BUB5)
Sequence (Q9BUB5 other isoform, or with tags, fused parts or gaps): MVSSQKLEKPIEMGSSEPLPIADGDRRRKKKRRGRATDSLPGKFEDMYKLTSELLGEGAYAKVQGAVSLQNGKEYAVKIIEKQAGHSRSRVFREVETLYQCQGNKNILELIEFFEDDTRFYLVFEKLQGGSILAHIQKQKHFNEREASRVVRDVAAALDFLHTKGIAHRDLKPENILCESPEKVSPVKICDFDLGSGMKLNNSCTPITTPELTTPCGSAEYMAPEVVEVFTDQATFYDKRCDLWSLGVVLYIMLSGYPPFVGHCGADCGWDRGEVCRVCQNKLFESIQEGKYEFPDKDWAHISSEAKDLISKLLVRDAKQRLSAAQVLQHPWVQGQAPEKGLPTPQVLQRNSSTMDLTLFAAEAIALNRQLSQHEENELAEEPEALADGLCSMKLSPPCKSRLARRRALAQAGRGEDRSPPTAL
Assay: MNK1 in vitro kinase assay (Assay 3), Z'-LYTE
Assay type: biochemical
Conditions: not given
Procedure, shortened: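 Pre-activated GST-MNK1a phosphorylated a FRET peptide for 60 min at room temperature in HEPES pH 7.5 buffer with Mg2+/Mn2+, EGTA and DTT, with 1% DMSO final. Protease development followed for 60 min.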

| Compound | IC50 |
| --- | --- |
| Cc1cc(N=S2(=O)CCCC2)cc2ncnc(Nc3ccc(F)cc3O[C@H](C)C(F)(F)F)c12 [Example 2.048] | 40 nM |
| Cc1cc([C@@H](C)Oc2ncccc2Nc2ncnc3cc(N=S(C)(C)=O)cc(Cl)c23)on1 [Example 1.016] | 53 nM |
| CCNC(=O)[C@@H](C)Oc1cc(F)ccc1Nc1ncnc2cc(N=S(C)(C)=O)cc(C)c12 [Example 4.034] | 51 nM |
| C[C@@H](Oc1cc(F)ccc1Nc1ncnc2cc(N=S3(=O)CCC3)cc(F)c12)C(=O)NCC(F)(F)F [Example 4.100] | 14 nM |
| Cc1cc(N=S(C)(C)=O)cc2ncnc(Nc3ccc(F)cc3O[C@H](C)C(=O)NCC(F)(F)F)c12 [Example 4.071] | 55 nM |

Same assay, conditions: compound concentration of 1 μM, read-out: MNK1 % INH

| Compound | inhibition at 1 µM |
| --- | --- |
| COCCN(C)C(=O)[C@@H](C)Oc1cc(F)ccc1Nc1ncnc2cc(N=S(C)(C)=O)cc(C)c12 [Example 4.055] | 62% |
| Cc1cc(N=S2(=O)CCCC2)cc2ncnc(Nc3ccc(F)cc3OCc3ccccc3)c12 [Example 2.004] | 75% |
| C#CCNC(=O)[C@@H](C)Oc1cc(F)ccc1Nc1ncnc2cc(N=S3(=O)CCCC3)cc(C)c12 [Example 4.027] | 99% |
| Cc1cc(N=S2(=O)CCCC2)cc2ncnc(Nc3ccc(F)cc3O[C@H](C)C(=O)N(C)CCc3ccccc3)c12 [Example 4.063] | 56% |
| Cc1cc(N=S(C)(C)=O)cc2ncnc(Nc3ccc(F)cc3O[C@H](C)C(=O)N[C@@H]3CCC[C@@H]3O)c12 [Example 4.038] | 78% |
| Cc1cc(N=S(C)(C)=O)cc2ncnc(Nc3ccc(F)cc3OC(C)c3nccs3)c12 (centres unmarked) [Example 3.035] | 89% |
| Cc1cc(N=S(C)(C)=O)cc2ncnc(Nc3ccc(F)cc3OC(C)c3cccnc3)c12 (centres unmarked) [Example 3.007] | 96% |
| O=S1(=Nc2cc(C(F)(F)F)c3c(Nc4ccc(F)cc4OC(CF)CF)ncnc3c2)CCOCC1 [Example 1.021] | 52% |
| Cc1cc(N=S2(=O)CCCC2)cc2ncnc(Nc3ccc(F)cc3O[C@H](C)C(=O)N3CCC(=O)CC3)c12 [Example 4.054] | 95% |
| CCOC(=O)[C@@H](C)Oc1cc(F)ccc1Nc1ncnc2cc(N=S(C)(C)=O)cc(C)c12 [Example 3.022] | 98% |
| Cc1cc(N=S(C)(C)=O)cc2ncnc(Nc3cccnc3OC(C)C)c12 [Example 2.017] | 90% |
| Cc1cc(N=S(C)(C)=O)cc2ncnc(Nc3ccc(F)cc3OC(C)CC3CCOCC3)c12 (centres unmarked) [Example 3.019] | 48% |
| Cc1cc(N=S(C)(C)=O)cc2ncnc(Nc3ccc(F)cc3OC(C)c3ccncc3)c12 (centres unmarked) [Example 3.046] | 97% |
| Cc1cc(N=S(C)(C)=O)cc2ncnc(Nc3ccc(F)cc3OC(C)C(C)(C)C#N)c12 (centres unmarked) [Example 2.010] | 76% |
| Cc1cc(N=S(C)(C)=O)cc2ncnc(Nc3ccc(F)cc3O[C@H](C)CNC(=O)C(F)(F)F)c12 [Example 5.010] | 62% |
| Cc1cc(N=S2(=O)CCCC2)cc2ncnc(Nc3ccc(F)cc3O[C@H](C)C(=O)N[C@@H]3CCC[C@@H]3O)c12 [Example 4.075] | 90% |
| Cc1cc(N=S(C)(C)=O)cc2ncnc(Nc3ccc(F)cc3OCC3COCCO3)c12 (centres unmarked) [Example 3.044] | 49% |
| Cc1cc(N=S(C)(C)=O)cc2ncnc(Nc3ccc(F)cc3O[C@H](C)C(=O)N(C)C)c12 [Example 4.002] | 54% |
| CS(C)(=O)=Nc1cc(C(F)(F)F)c2c(Nc3ccc(F)cc3OC(CF)CF)ncnc2c1 [Example 1.002] | 59% |

| Compound | inhibition at 1 µM |
| --- | --- |
| COC1CCN(C(=O)[C@@H](C)Oc2cc(F)ccc2Nc2ncnc3cc(N=S4(=O)CCCC4)cc(C)c23)CC1 [Example 4.059] | 90% |
| Cc1cc(N=S(C)(C)=O)cc2ncnc(Nc3ccc(F)cc3O[C@H](C)C(=O)N(C)C3CCCC3)c12 [Example 4.053] | 80% |
| Cc1cc(N=S(C)(C)=O)cc2ncnc(Nc3ccc(F)cc3O[C@H](C)C(=O)NCC(C)O)c12 (some centres unmarked) [Example 4.020] | 98% |
| CCS(C)(=O)=Nc1cc(Cl)c2c(Nc3cccnc3O[C@H](C)c3cc(C)no3)ncnc2c1 (some centres unmarked) [Example 1.005] | 98% |
| Cc1cc(N=S(C)(C)=O)cc2ncnc(Nc3ccc(F)cc3O[C@H](C)C(=O)N(C)CC(C)C)c12 [Example 4.013] | 88% |
| COCCN(C)C(=O)[C@@H](C)Oc1cc(F)ccc1Nc1ncnc2cc(N=S3(=O)CCCC3)cc(C)c12 [Example 4.041] | 82% |
| Cc1cc(N=S(C)(C)=O)cc2ncnc(Nc3ccc(F)cc3O[C@H](C)CNS(=O)(=O)C(F)(F)F)c12 [Example 5.011] | 27% |
| Cc1cc(N=S2(=O)CCCC2)cc2ncnc(Nc3cccnc3OCC3CCOC3)c12 (centres unmarked) [Example 2.005] | 96% |
| Cc1cc(N=S(C)(C)=O)cc2ncnc(Nc3ccc(F)cc3OCC3(C)COC3)c12 [Example 3.029] | 72% |
| Cc1cc(N=S(C)(C)=O)cc2ncnc(Nc3ccc(F)cc3O[C@H](C)C(=O)NC3CCC3)c12 [Example 4.023] | 99% |
| CC(=O)NC[C@H](C)Oc1cc(F)ccc1Nc1ncnc2cc(N=S(C)(C)=O)cc(C)c12 [Example 5.002] | 88% |
| CC(CF)Oc1cc(F)ccc1Nc1ncnc2cc(N=S(C)(C)=O)cc(F)c12 (centres unmarked) [Example 1.006] | 96% |
| C[C@@H](Oc1cc(F)ccc1Nc1ncnc2cc(N=S3(=O)CCC3)cc(F)c12)C(=O)NCC(F)(F)F [Example 4.100] | 97% |
| Cc1cc(N=S(C)(C)=O)cc2ncnc(Nc3ccc(F)cc3O[C@H](C)C(=O)NC3COC3)c12 [Example 4.009] | 99% |
| Cc1cc(N=S(C)(C)=O)cc2ncnc(Nc3ccc(F)cc3OC(C)c3ncco3)c12 (centres unmarked) [Example 3.002] | 80% |
| Cc1cc(N=S2(=O)CCCC2)cc2ncnc(Nc3ccc(F)cc3O[C@H](C)C(=O)NC3CCOCC3)c12 [Example 4.014] | 96% |
| Cc1cc(N=S(C)(C)=O)cc2ncnc(Nc3ccc(F)cc3OC(C)COC3CCOC3)c12 (centres unmarked) [Example 3.028] | 92% |
| Cc1cc([C@@H](C)Oc2cc(F)ccc2Nc2ncnc3cc(N=S4(=O)CCN(C)CC4)cc(C)c23)on1 [Example 7.001] | 98% |
| CCN(C)C(=O)[C@@H](C)Oc1cc(F)ccc1Nc1ncnc2cc(N=S(C)(C)=O)cc(C)c12 [Example 4.068] | 86% |
